System: PrP^C overexpression-induced cofilactin rods in rat hippocampal neurons

**Q.** Which results are given for `C[C@H](O)[C@@H](N)C(=O)N[C@@H](C(=O)N[C@H](CC(N)=O)C(=O)N[C@H](Cc1ccc(O)cc1)C(=O)N[C@@H](C(=O)O)[C@H](C)O)[C@H](C)O` [RAP-103]?
**A.** Rod formation induced by PrP^C overexpression, 4-day treatment: blocked; Rod formation induced by PrP^C overexpression, treatment for last day only: reversed
